# Measured values reported in US9260408B2, “Dihydroquinoline-2-one derivatives” (Hoffmann-La Roche Inc., priority 2011, dated 2016).
# Counter-ions that a name gives are not always drawn.
# Columns and labels:
# [1] = target: T1, human CYP11B2 (Homo sapiens, UniProt P19099); experiment: G-402 cellular enzyme assay, human CYP11B2 (aldosterone release, HTRF); type: cell-based; details: G-402 cells expressing human CYP11B2; 1 μM Deoxycorticosterone
# T1 construct: expressed in transfected cells
# T1 sequence (P19099 25-503): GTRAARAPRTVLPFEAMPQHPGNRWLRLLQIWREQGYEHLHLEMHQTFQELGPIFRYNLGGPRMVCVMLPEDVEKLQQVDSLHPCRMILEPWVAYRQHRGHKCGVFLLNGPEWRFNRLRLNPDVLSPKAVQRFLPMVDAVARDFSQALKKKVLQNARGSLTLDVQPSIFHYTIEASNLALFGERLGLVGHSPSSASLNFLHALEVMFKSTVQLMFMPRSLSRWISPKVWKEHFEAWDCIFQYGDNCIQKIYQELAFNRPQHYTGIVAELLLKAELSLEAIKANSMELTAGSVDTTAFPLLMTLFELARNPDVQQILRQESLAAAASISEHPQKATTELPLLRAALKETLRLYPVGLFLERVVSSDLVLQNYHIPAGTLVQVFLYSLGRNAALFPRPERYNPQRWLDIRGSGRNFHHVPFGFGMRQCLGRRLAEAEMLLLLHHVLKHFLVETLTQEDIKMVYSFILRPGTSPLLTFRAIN
# Method in brief: (§1)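 EC50 comes from least-squares fitting of a 4-parameter MMF curve to steroid product levels, measured by HTRF as aldosterone for CYP11B2 or cortisol for CYP11B1. Stably transfected G-402 host cells were given substrate (1 μM deoxycorticosterone or deoxycortisol, respectively) with inhibitor for 16 h in medium with 2.5% charcoal-treated FCS.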
# [2] = target: T2, human CYP11B1 (Homo sapiens, UniProt P15538); experiment: G-402 cellular enzyme assay, human CYP11B1 (cortisol release, HTRF); type: cell-based; details: G-402 cells expressing human CYP11B1; 1 μM Deoxycortisol
# T2 construct: expressed in transfected cells
# T2 sequence (P15538 25-503): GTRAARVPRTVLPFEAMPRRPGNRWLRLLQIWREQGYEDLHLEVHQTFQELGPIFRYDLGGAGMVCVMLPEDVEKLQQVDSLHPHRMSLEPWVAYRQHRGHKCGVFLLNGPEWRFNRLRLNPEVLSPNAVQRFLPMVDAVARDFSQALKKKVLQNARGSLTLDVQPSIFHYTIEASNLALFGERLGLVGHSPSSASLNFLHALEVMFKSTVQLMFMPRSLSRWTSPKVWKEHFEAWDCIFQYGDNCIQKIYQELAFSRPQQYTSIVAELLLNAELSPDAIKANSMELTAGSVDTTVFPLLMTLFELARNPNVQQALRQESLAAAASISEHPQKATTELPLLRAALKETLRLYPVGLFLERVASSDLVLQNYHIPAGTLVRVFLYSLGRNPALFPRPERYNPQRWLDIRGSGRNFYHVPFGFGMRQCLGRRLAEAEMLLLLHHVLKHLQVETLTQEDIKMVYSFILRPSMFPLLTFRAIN
# Method in brief: as §1
EC50 [1] [nM],EC50 [2] [nM],Compound
20,2240,"O=C1CCc2cc(-c3cncc(CNC(=O)c4ncccc4Cl)c3)cc(Cl)c2N1 [Example 204, 3-Chloro-pyridine-2-carboxylic acid [5-(8-chloro-2-oxo-1,2,3,4-tetrahydro-quinolin-6-yl)-pyridin-3-ylmethyl]-amide]"
28,160,"CN1C(=O)CCc2cc(-c3cncc(OCCN)c3)ccc21 [Example 42, 6-[5-(2-amino-ethoxy)-pyridin-3-yl]-1-methyl-3,4-dihydro-1H-quinolin-2-one hydrochloride]"
4,62,"CCC(=O)N(C)CCOc1cncc(-c2ccc3c(c2)CCC(=O)N3C)c1 [Example 197, N-Methyl-N-{2-[5-(1-methyl-2-oxo-1,2,3,4-tetrahydro-quinolin-6-yl)-pyridin-3-yloxy]-ethyl}-propionamide]"
250,15000,"Cc1c(-c2ccc3c(c2)CCC(=O)N3C)cncc1C(C)N (single isomer, unassigned) [Example 240, 6-[5-((R or S)-1-Amino-ethyl)-4-methyl-pyridin-3-yl]-1-methyl-3,4-dihydro-1H-quinolin-2-one hydrochloride]"
25,100,COC(=O)[C@@H]1CCCN1Cc1cncc(-c2ccc3c(c2)CCC(=O)N3C)c1 [Example 22]
8,509,"Cc1noc(C)c1C(=O)NCc1cncc(-c2ccc3c(c2)CCC(=O)N3C)c1 [Example 75, 3,5-Dimethyl-isoxazole-4-carboxylic acid [5-(1-methyl-2-oxo-1,2,3,4-tetrahydro-quinolin-6-yl)-pyridin-3-ylmethyl]-amide]"
4650,> 10000,CCS(=O)(=O)NCc1cncc(-c2ccc3c(c2)C(C)(C)CC(=O)N3C)c1 [Example 17]
19,802,"CN1C(=O)CCc2cc(-c3cncc(C4=CN(C(=O)OC(C)(C)C)CCC4)c3)ccc21 [Example 231, 5′-(1-Methyl-2-oxo-1,2,3,4-tetrahydro-quinolin-6-yl)-5,6-dihydro-4H-[3,3′]bipyridinyl-1-carboxylic acid tert-butyl ester]"
24,436,"CN1C(=O)CCc2cc(-c3cncc(C4(N(C)C(=O)c5ncccc5Cl)CC4)c3)ccc21 [Example 201, 3-Chloro-pyridine-2-carboxylic acid methyl-{1-[5-(1-methyl-2-oxo-1,2,3,4-tetrahydro-quinolin-6-yl)-pyridin-3-yl]-cyclopropyl}-amide]"
54,623,"CCC(=O)NC(C)c1cncc(-c2ccc3c(c2)CCC(=O)N3C)c1C (single isomer, unassigned) [Example 266, N-{(R or S)-1-[4-Methyl-5-(1-methyl-2-oxo-1,2,3,4-tetrahydro-quinolin-6-yl)-pyridin-3-yl]-ethyl}-propionamide]"
829,> 10000,"CCNC[C@@H]1CCCN1c1cncc(-c2ccc3c(c2)CCC(=O)N3C)c1 [Example 9, 6-[5-((S)-2-Ethylaminomethyl-pyrrolidin-1-yl)-pyridin-3-yl]-1-methyl-3,4-dihydro-1H-quinolin-2-one]"
4,157,"Cc1c(CNC(=O)c2ncccc2Cl)cncc1-c1cc2c(cc1F)N(C)C(=O)CC2 [Example 227, 3-Chloro-pyridine-2-carboxylic acid [5-(7-fluoro-1-methyl-2-oxo-1,2,3,4-tetrahydro-quinolin-6-yl)-4-methyl-pyridin-3-ylmethyl]-amide]"
9,356,"CN(Cc1cncc(-c2ccc3c(c2)CCC(=O)N3C)c1Cl)C(=O)c1ncccc1Cl [Example 228, 3-Chloro-pyridine-2-carboxylic acid [4-chloro-5-(1-methyl-2-oxo-1,2,3,4-tetrahydro-quinolin-6-yl)-pyridin-3-ylmethyl]-methyl-amide]"
11,199,"CCS(=O)(=O)N(C)C(C)c1cncc(-c2ccc3c(c2)CCC(=O)N3C)c1 (racemic) [Example 186, (rac)-Ethanesulfonic acid methyl-{1-[5-(1-methyl-2-oxo-1,2,3,4-tetrahydro-quinolin-6-yl)-pyridin-3-yl]-ethyl}-amide]"
30,104,"CC(C)(C)OC(=O)N1CC[C@H](Oc2cncc(-c3ccc4c(c3)CCC(=O)N4)c2)C1 [Example 214, (S)-3-[5-(2-oxo-1,2,3,4-tetrahydro-quinolin-6-yl)-pyridin-3-yloxy]-pyrrolidine-1-carboxylic acid tert-butyl ester]"
315,13100,"CC(N)c1cncc(-c2ccc3c(c2)CCC(=O)N3C)c1 (single isomer, unassigned) [Example 65, 6-[5-((R or S)-1-amino-ethyl)-pyridin-3-yl]-1-methyl-3,4-dihydro-1H-quinolin-2-one hydrochloride]"
81,1500,"CC(C)S(=O)(=O)NCc1cncc(-c2ccc3c(c2)CCC(=O)N3C)c1 [Example 38, Propane-2-sulfonic acid [5-(1-methyl-2-oxo-1,2,3,4-tetrahydro-quinolin-6-yl)-pyridin-3-ylmethyl]-amide]"
4,460,CCC(=O)N[C@H]1CC[C@H](Oc2cncc(-c3ccc4c(c3)CCC(=O)N4C)c2)CC1 [Example 144]
9,46,CN1C(=O)CCc2cc(-c3cncc(CNC(=O)c4nccn4C)c3)ccc21 [Example 83]
5,568,"CN1C(=O)CCc2cc(-c3cncc(CN4CCCCS4(=O)=O)c3)ccc21 [Example 44, 6-[5-(1,1-Dioxo-1λ^6-[1,2]thiazinan-2-ylmethyl)-pyridin-3-yl]-1-methyl-3,4-dihydro-1H-quinolin-2-one]"
10,777,"CCS(=O)(=O)NC(C)c1cncc(-c2cc3c(cc2F)N(C)C(=O)CC3)c1 (single isomer, unassigned) [Example 191, Ethanesulfonic acid {(S or R)-1-[5-(7-fluoro-1-methyl-2-oxo-1,2,3,4-tetrahydro-quinolin-6-yl)-pyridin-3-yl]-ethyl}-amide]"
162,10500,CCC(=O)NC1(c2cncc(-c3ccc4c(c3)CCC(=O)N4C)c2)COC1 [Example 130]
8,453,"CN1C(=O)CCc2cc(-c3cncc(O[C@@H]4CCN(C(=O)OC(C)(C)C)C4)c3)ccc21 [Example 53, (R)-3-[5-(1-Methyl-2-oxo-1,2,3,4-tetrahydro-quinolin-6-yl)-pyridin-3-yloxy]-pyrrolidine-1-carboxylic acid tert-butyl ester]"
14,572,"Cc1noc(C)c1C(=O)N(C)Cc1cncc(-c2ccc3c(c2)CCC(=O)N3C)c1 [Example 188, 3,5-Dimethyl-isoxazole-4-carboxylic acid methyl-[5-(1-methyl-2-oxo-1,2,3,4-tetrahydro-quinolin-6-yl)-pyridin-3-ylmethyl]-amide]"
13,1320,"CN1C(=O)CCc2cc(-c3cncc(O[C@H]4CCN(C(=O)c5cnn(C)c5)C4)c3)ccc21 [Example 255, 1-Methyl-6-{5-[(S)-1-(1-methyl-1H-pyrazole-4-carbonyl)-pyrrolidin-3-yloxy]-pyridin-3-yl}-3,4-dihydro-1H-quinolin-2-one]"
3,154,CN1C(=O)CCc2cc(-c3cncc(CNC(=O)c4cnc(Cl)cn4)c3)ccc21 [Example 125]
119,2290,CCC(=O)N1CCC[C@@H]1COc1cncc(-c2ccc3c(c2)CCC(=O)N3C)c1 [Example 128]
3,61,"CN1C(=O)CCc2cc(-c3cncc(OC4CN(C(=O)OC(C)(C)C)C4)c3)ccc21 [Example 47, 3-[5-(1-Methyl-2-oxo-1,2,3,4-tetrahydro-quinolin-6-yl)-pyridin-3-yloxy]-azetidine-1-carboxylic acid tert-butyl ester]"
5,298,"CN1C(=O)CCc2cc(-c3cncc(O[C@@H]4CCN(C(=O)OC(C)(C)C)C4)c3)c(F)cc21 [Example 46, (R)-3-[5-(7-Fluoro-1-methyl-2-oxo-1,2,3,4-tetrahydro-quinolin-6-yl)-pyridin-3-yloxy]-pyrrolidine-1-carboxylic acid tert-butyl ester]"
